# Values of other authors in patent EP2743282B1, “Melamine-aldehyde-condensation product and method obtaining the same” (Borealis Agrolinz Melamine GmbH, priority 2012, dated 2014).
# Conditions: in water at 20 °C
row,water solubility [µg/mL],SMILES
1,1200,"CN(C)c1nc(N)nc(N)n1 [N,N-dimethylmelamine]"
2,49000,"CNc1nc(NC)nc(N(C)C)n1 [N,N,N',N""-tetramethylmelamine, reference compound]"
3,400,"CN(C)c1nc(N)nc(N(C)C)n1 [N,N,N',N'-tetramethylmelamine]"
